Test results published in patent publication US7754272B2, “Local drug delivery” (Biocompatibles IK Limited, priority 1999, dated 2010).

Columns and labels:
[1] = Drug loading of HEMA-PC:HEMA:MMA:MBA crosslinked membrane; format: physicochemical; details: HEMA-PC:HEMA:MMA:MBA copolymer swollen in aqueous drug solution, room temperature, over night
Text: The polymers including MBA were polymerised in situ to form crosslinked membranes. […] The crosslinked polymers were used to form “infinite slabs” type membranes, to simulate the coating on a stent. […] The loaded levels were established to be the following: […]

[2] = Loading and release from quater polymer membrane; format: physicochemical; details: caffeine from aqueous, dipyridamole from 1:1 ethanol:water solution
[3] = Release from loaded membrane into water; format: physicochemical; details: HEMA-PC:HEMA:MMA:MBA membrane, FIG. 1
Description: The profile of fractional release against square root of time for release into water (using the same equipment as example 2) are set out in FIG. 1.

[4] = Effect of polymer composition on release of dicloxacillin; format: physicochemical; details: HEMA-PC:LM 1:4 with 2 mole % 3-chloro-2-hydroxypropyl methacrylate vs example 3 polymer, FIG. 2
Text: The membrane formed based on a 1:4 copolymer of HEMA-PC and dodecylmethacrylate (LM) with 2 mole % of reactive monomer which is 3-chloro-2-hydroxypropyl methacrylate, was compared to the polymer crosslinked by diethylenically unsaturated monomer MBA used in example 3 above, to compare release rates to dicloxacillin, a medium molecular weight model drug.

[5] = Ex vivo human saphenous vein model, polymer/dipyridamole coated stents
Description: Palmaz-Schatz Stents (trade mark) were coated with a solution of the same polymer as used in Reference Example 1, dissolved in ethanol at 50 g/l concentration, also containing dipyridamole at 30 g/l concentration. Stents were dipped into the solution by hand, using several coating steps. The stents were then cured overnight at 70 C. in moist air.
The coated stents were tested in an ex vivo model using fresh human saphenous vein, previously washed in the same culture medium as is used in Example 16 above, in the ex vivo tests. The stents were delivered into veins, which were subsequently deposited into apparatus used in Example 16. The circulating liquid, and the vessel wall were analysed at 1, 6 or 24 hours to determine localisation of dipyridamole. […] Similarly, the level of dipyridamole remaining on the stent decreases from 1 hour to 24 hours. […] At this time, dipyridamole is concentrated in the section of the vein immediately surrounding the stent with lower levels in the vessel immediately adjacent those sections.

Structure (SMILES)	Loading (mg/g polymer) [1] [mg/g polymer]	level of drug per stent (coated stent swollen in aqueous caffeine 10 mg/ml)	share of loading released in the first 60 seconds (first 60 seconds)	release times (release into aqueous medium, loaded from 10 mg/ml)	loading levels or release half life versus 10 mg/ml loading (swelling solution 10% w/w caffeine)	total loading [2] [mg/g polymer]	release into water [3]	release half life, polymer having hydrophobic groups versus MBA-crosslinked polymer [4]	dipyridamole within the vessel wall ([5]; 1, 6 or 24 hours)	dipyridamole in the circulating medium ([5]; 1 to 24 hours)
Cn1c(=O)c2c(ncn2C)n(C)c1=O [Caffeine, caffeine]	80	around 0.025 mg per stent	at least 80%	negligible	No significant increase	28	substantially total release after about an hour	–	–	–
Cc1onc(-c2c(Cl)cccc2Cl)c1C(=O)N[C@@H]1C(=O)N2[C@@H]1SC(C)(C)[C@@H]2C(=O)O [Dicloxacillin, dicloxacillin]	32	–	–	–	–	–	–	much higher	–	–
OCCN(CCO)c1nc(N2CCCCC2)c2nc(N(CCO)CCO)nc(N3CCCCC3)c2n1 [Dipyridamole, dipyridamole]	32	–	–	–	–	18	–	–	no dipyridamole could be seen within the vessel wall until twenty four hours after stent deployment	can be detected in the circulating medium after one hour
